Source: US9085587B2, “Inhibitors of hepatitis C virus” (priority 2010, dated 2015)
Read-outs that look alike come from different tables or passages of the source.

Tested on: HCV 1b replication (bicistronic genotype 1b replicon in Huh 7 cells)
Test: HCV 1b replicon assay (1b_Huh-Luc/Neo-ET cell line, luciferase readout)
Assay type: cell-based
Conditions: Hepatitis C virus
Procedure: Biological activity of the compounds of the invention was determined using an HCV replicon assay. The 1b_Huh-Luc/Neo-ET cell line persistently expressing a bicistronic genotype 1b replicon in Huh 7 cells was obtained from ReBLikon GMBH. This cell line was used to test compound inhibition using luciferase enzyme activity readout as a measurement of compound inhibition of replicon levels.
On Day 1 (the day after plating), each compound was added in triplicate to the cells. Plates were incubated for 72 hours prior to running the luciferase assay. Enzyme activity was measured using a Bright-Glo Kit (cat. number E2620) manufactured by Promega Corporation. The following equation was used to generate a percent control value for each compound. % Control=(Average Compound Value/Average Control)*100
The EC50 value was determined using GraphPad Prism and the following equation: Y=Bottom+(Top-Bottom)/(1+10^((Log IC50−X)*HillSlope))
EC50 values of compounds were repeated several times in the replicon assay.

[1] = Huh-7, 1b_Huh-Luc/Neo-ET cell line, 72 hours, luciferase readout, read-out: EC50, concentration effective to produce a half-maximal inhibition of HCV 1b replication
[2] = Huh-7, class symbols, genotype 1b replicon, read-out: Inhibition of HCV genotype 1b replicon

`CNC(=O)c1c(-c2ccc(F)cc2)oc2cc3c(cc12)[C@H](C)O[C@H](COC(=O)CC1CCNCC1)CN3S(C)(=O)=O` [Compound B264] was tested, and the EC50 [1] was 10 to 100 nM and the EC50 [2] was 10 to 100 nM.

For `CNC(=O)c1c(-c2ccc(F)cc2)oc2cc3c(cc12)[C@H](C)O[C@H](COCCOC)CN3S(C)(=O)=O` [Compound B267], the EC50 [1] was no more than 10 nM and the EC50 [2] was less than 10 nM.

In the case of `CNC(=O)c1c(-c2ccc(F)cc2)oc2cc3c(cc12)[C@H](C)O[C@H](COC(=O)[C@@H](C)N)CN3S(C)(=O)=O` [Compound B273], the EC50 [1] is reported as no more than 10 nM and the EC50 [2] is reported as less than 10 nM.

`CNC(=O)c1c(-c2ccc(F)cc2F)oc2cc3c(cc12)C(CO)CCCN3S(C)(=O)=O` (centres unmarked) [Compound B36] gave an EC50 [1] of 10 to 100 nM and an EC50 [2] of 10 to 100 nM.

With `CNC(=O)c1c(-c2ccc(F)cc2)oc2cc3c(cc12)[C@H](C)O[C@H](COC(=O)[C@@H](N)CC(C)C)CN3S(C)(=O)=O` [Compound B271] the EC50 [1] was no more than 10 nM and the EC50 [2] was less than 10 nM.

`CNC(=O)c1c(-c2ccc(F)cc2)oc2cc3c(cc12)[C@H](C)O[C@H](COC(=O)[C@@H](N)Cc1cnc[nH]1)CN3S(C)(=O)=O` [Compound B277] showed an EC50 [1] of no more than 10 nM and an EC50 [2] of less than 10 nM.

With `CNC(=O)c1c(-c2ccc(F)cc2)oc2cc3c(cc12)[C@H](C)O[C@H](COC(=O)[C@@H](N)c1ccccc1)CN3S(C)(=O)=O` [Compound B272] the EC50 [1] was no more than 10 nM and the EC50 [2] was less than 10 nM.

Compound `CNC(=O)c1c(-c2ccc(F)cc2)oc2cc3c(cc12)[C@H](C)O[C@H](COC(=O)C1CCNCC1)CN3S(C)(=O)=O` [Compound 8265] has an EC50 (Huh-7, read-out: Inhibition of HCV genotype 1b replicon) of less than 10 nM and an EC50 [1] of no more than 10 nM.

In the case of `CNC(=O)c1c(-c2ccc(F)cc2)oc2cc3c(cc12)C(=O)CCCN3S(C)(=O)=O` [Compound B7], the EC50 [1] is reported as 10 to 100 nM and the EC50 [2] is reported as 10 to 100 nM.

Compound `CNC(=O)c1c(-c2ccc(F)cc2)oc2cc3c(cc12)[C@H](C)O[C@H](COC[C@H]1COC(C)(C)O1)CN3S(C)(=O)=O` [Compound B275] has an EC50 [1] of no more than 10 nM and an EC50 [2] of less than 10 nM.

For `CNC(=O)c1c(-c2ccc(F)cc2)oc2cc3c(cc12)C(O)CCCN3S(C)(=O)=O` (centres unmarked) [Compound B8], the EC50 (Huh-7, numeric EC50, genotype 1b replicon, read-out: Inhibition of HCV genotype 1b replicon (EC50)) was 106 nM.

With `CNC(=O)c1c(-c2ccc(F)cc2)oc2cc3c(cc12)[C@H](C)O[C@H](COC(=O)[C@@H]1CCCN1)CN3S(C)(=O)=O` [Compound B266] the EC50 [1] was no more than 10 nM and the EC50 [2] was less than 10 nM.

`CNC(=O)c1c(-c2ccc(F)cc2)oc2cc3c(cc12)[C@H](C)O[C@H](COC(=O)[C@@H](N)CO)CN3S(C)(=O)=O` [Compound B281] was tested, and the EC50 [1] was no more than 10 nM and the EC50 [2] was less than 10 nM.

Compound `CNC(=O)c1c(-c2ccc(F)cc2)oc2cc3c(cc12)[C@H](C)O[C@H](COC(=O)COCCOCCOCCOCCOC)CN3S(C)(=O)=O` [Compound B259] has an EC50 [1] of no more than 10 nM and an EC50 [2] of less than 10 nM.

`CNC(=O)c1c(-c2ccc(F)cc2)oc2cc3c(cc12)[C@H](C)O[C@H](COC(=O)c1cccnc1)CN3S(C)(=O)=O` [Compound B263] showed an EC50 [1] of no more than 10 nM and an EC50 [2] of less than 10 nM.

Work on `CNC(=O)c1c(-c2ccc(F)cc2)oc2cc3c(cc12)[C@H](C)O[C@H](COC(=O)COCCOCCOC)CN3S(C)(=O)=O` [Compound B256] yielded an EC50 [1] of no more than 10 nM and an EC50 [2] of less than 10 nM.

With `CONC(=O)c1c(-c2ccc(F)cc2)oc2cc3c(cc12)[C@H](C)O[C@H](CO)CN3S(C)(=O)=O` [Compound B257] the EC50 [1] was no more than 10 nM and the EC50 [2] was less than 10 nM.

For `CNC(=O)c1c(-c2ccc(F)cc2)oc2cc3c(cc12)[C@H](C)O[C@H](COCCOCCOC)CN3S(C)(=O)=O` [Compound B268], the EC50 [1] was no more than 10 nM and the EC50 [2] was less than 10 nM.

Work on `CNC(=O)c1c(-c2ccc(F)cc2)oc2cc3c(cc12)[C@H](C)O[C@H](COC(=O)[C@@H](N)[C@@H](C)OC)CN3S(C)(=O)=O` [Compound B270] yielded an EC50 [1] of no more than 10 nM and an EC50 [2] of less than 10 nM.

`CNC(=O)c1c(-c2ccc(Oc3ccc(F)cc3)cc2)oc2cc3c(cc12)[C@H](C)O[C@H](COC(=O)C(C)(C)C)CN3S(C)(=O)=O` [Compound B244] was tested, and the EC50 [1] was no more than 10 nM and the EC50 [2] was less than 10 nM.

For `CNC(=O)c1c(-c2ccc(F)cc2F)oc2cc3c(cc12)C(C)=CCCN3S(C)(=O)=O` [Compound B34], the EC50 [1] was 10 to 100 nM and the EC50 [2] was 10 to 100 nM.
